Data reported in PubChem BioAssay (NCI).
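Test compounds were applied to cells in 96-well plates for 48 hours at 5 doses. GI50 is the concentration that inhibits growth by half. TGI denotes the concentration required for complete inhibition of growth.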

Experiments:
Assay in all cases: NCI tumour cell line growth inhibition, 48 h
786-0 renal = test system: 786-0 renal
A498 renal = test system: A498 renal
CCRF-CEM leukemia = test system: CCRF-CEM leukemia
COLO 205 colon = test system: COLO 205 colon
DU-145 prostate = test system: DU-145 prostate
MOLT-4 leukemia = test system: MOLT-4 leukemia
OVCAR-4 ovarian = test system: OVCAR-4 ovarian
PC-3 prostate = test system: PC-3 prostate
UO-31 renal = test system: UO-31 renal
SN12C renal = test system: SN12C renal

SMILES | TGI (786-0 renal) [µM] | TGI (A498 renal) [µM] | TGI (CCRF-CEM leukemia) [µM] | TGI (COLO 205 colon) [µM] | TGI (DU-145 prostate) [µM] | TGI (MOLT-4 leukemia) [µM] | TGI (OVCAR-4 ovarian) [µM] | TGI (PC-3 prostate) [µM] | TGI (UO-31 renal) [µM] | GI50 (786-0 renal) [µM] | GI50 (A498 renal) [µM] | GI50 (CCRF-CEM leukemia) [µM] | GI50 (COLO 205 colon) [µM] | GI50 (DU-145 prostate) [µM] | GI50 (MOLT-4 leukemia) [µM] | GI50 (OVCAR-4 ovarian) [µM] | GI50 (PC-3 prostate) [µM] | GI50 (SN12C renal) [µM] | TGI (SN12C renal) [µM] | GI50 (UO-31 renal) [µM]
O=C1CC(c2ccccc2)Oc2ccccc21 (stereo not drawn) | > 100 | 94 | 57.4 | > 100 | > 100 | 34.4 | > 100 | > 100 | > 100 | – | – | – | – | – | – | – | – | – | – | –
Cc1c(C(=N)C(C#N)C#N)c(=N)oc2c1ccc1ccccc12 | > 100 | 96 | > 100 | 29.8 | > 100 | > 100 | > 100 | > 100 | > 100 | 29.1 | 9.83 | 13 | 14.9 | 25.3 | 21.7 | 19.7 | 29.5 | 22 | > 100 | 8.23
COc1ccc(OC)c(NCC(=O)n2nc(/C=C\c3ccc(O)c(OC)c3)cc2/C=C\c2ccc(O)c(OC)c2)c1 | 7.97 | 5.7 | > 100 | 4.27 | 12.7 | 9.21 | 22.7 | > 100 | 13.6 | 2.1 | 1.6 | 0.474 | 2.11 | 3.23 | 1.11 | 3.43 | 2.52 | 2.52 | > 100 | 1.8
CCN=c1sc2c(n1NC(=O)c1cc3ccc1CCc1ccc(cc1)CC3)C(=O)c1ccccc1C2=O | 1.62 | 20.9 | 33.3 | 3.71 | 1.16 | 1.94 | 0.906 | 3.05 | 0.96 | 0.727 | 4.81 | 1.01 | 1.56 | 0.632 | 0.634 | 0.469 | 0.643 | 0.52 | 1.06 | 0.356
CN(C)CCCC1(c2ccc(F)cc2)OCc2cc(-c3cccc4[nH]ccc34)ccc21 (stereo not drawn) | 3.24 | 2.96 | 3.95 | 2.88 | 3.23 | 3.22 | 4.51 | 3.31 | 2.63 | 1.63 | 1.56 | 1.65 | 1.47 | 1.77 | 1.49 | 1.97 | 1.58 | 1.55 | 2.96 | 1.35
COc1ccc2c(N)ncc(C#Cc3cc(C(=O)Nc4ccc(CN5CCN(C)CC5)c(C(F)(F)F)c4)cnc3C)c2c1 | 1.25 | 3 | 4.13 | 4.48 | 0.874 | 1.67 | 10.9 | 3.56 | 2.28 | 0.673 | 0.842 | 0.841 | 0.568 | 0.419 | 0.396 | 1.13 | 0.924 | 0.594 | 1.52 | 0.632
COc1ccc2c(c1)c(-c1nc(-c3c[nH]c4ncccc34)cs1)cn2CCCN1CCOCC1 | 3.44 | 2.04 | 8.09 | 3.8 | 11 | 4.4 | 8.27 | 8.68 | 3.67 | 1.74 | 0.481 | 2.76 | 1.82 | 3.15 | 1.85 | 2.14 | 2.48 | 3.16 | 15.6 | 1.37
N#CC1c2ccccc2C=CN1C(=O)CCCl (stereo not drawn) | 28 | 25.8 | 21.2 | 5.65 | 21.9 | 51.2 | 10.7 | 28.5 | 7.2 | 14 | 11.7 | 3.45 | 2.48 | 9.04 | 7.88 | 2.79 | 14.1 | 15.6 | 34.9 | 2.32
O=C1NC(=N[C@@H](CO)c2ccccc2)S/C1=C\c1ccc2ncccc2c1 | > 25 | > 21.9 | 21.2 | 15.9 | > 25 | > 25 | > 25 | > 25 | > 21.2 | > 21.9 | 4.29 | 5.86 | 5.5 | 13.8 | 9.19 | 12.5 | > 25 | 8.1 | > 25 | 4.53
OC1(c2ccc(Cl)c(C(F)(F)F)c2)CCN(CCCC(c2ccc(F)cc2)c2ccc(F)cc2)CC1 | 1.52 | 1.12 | 2.63 | 1.57 | 1.66 | 2.38 | 1.82 | 2.1 | 2.72 | 0.832 | 0.515 | 1.04 | 0.856 | 0.897 | 1.03 | 0.804 | 0.857 | 0.831 | 1.54 | 0.714
O=C1c2cccc(Oc3ccccc3)c2C(=O)c2cccc(Oc3ccccc3)c21 | > 100 | > 100 | 30.3 | > 100 | > 100 | > 100 | – | > 100 | > 100 | 27.5 | > 100 | 7.14 | > 100 | > 100 | > 100 | – | > 100 | > 100 | > 100 | > 100
COc1ccc(OC)c(/C=C/c2nc(=S)n(-c3ccc(Cl)cc3)[nH]2)c1 | > 100 | > 100 | > 100 | 68.4 | > 100 | > 100 | > 100 | > 100 | – | 7.17 | 6.66 | 4.77 | 12.4 | 19.1 | 7.74 | 20.6 | 8.91 | 6.07 | > 100 | –
COc1ccc(C(=O)c2cc(OC)c(OC)c(OC)c2OC)cc1O | > 100 | > 100 | – | 34.3 | > 100 | > 100 | > 100 | > 100 | > 100 | 4.35 | 6.31 | – | 8.27 | 4.64 | 4.56 | 6.14 | 4.06 | 6.64 | > 100 | 5.02
